System: Mycobacterium smegmatis
Assay: In vitro Mycobacterium smegmatis growth inhibition assay (suspension turbidity)
Type: cell-based
Settings: for Inhibitory activity against Mycobacterium smegmatis growth, in words, compared with RMP: versus active control RMP; for IC50: Mycolicibacterium smegmatis, four parameter curve fit of the 96 hours growth data, read-out: IC50 (concentration to inhibit 50% of the Mycobacterium smegmatis growth)

Row | Compound | Inhibitory activity against Mycobacterium smegmatis growth, in words, compared with RMP | IC50 [µM] | % of Celular Growth at 96 hours (concentration 1.23 uM) [%] | % of Celular Growth at 96 hours (concentration 3.70 uM) [%] | % of Celular Growth at 96 hours (concentration 11.11 uM) [%] | % of Celular Growth at 96 hours (concentration 33.33 uM) [%] | % of Celular Growth at 96 hours (concentration 100.00 uM) [%]
1 | 3,5-dibromo-2-hydroxybenzaldehyde (2-pyridinyl)hydrazine [Compound no. 42] | superior inhibitory activity | – | – | – | – | – | –
2 | Oc1ccc(Br)cc1C=NNc1ccc2ccccc2n1 [Compound no. 76, 5-bromo-2-hydroxybenzaldehyde 2-quinolinylhydrazone] | better IC50 values than RMP | 16.2 | 118.35 | 113.44 | 121.72 | 43.92 | 51.50
3 | Cc1cc(NN=Cc2ccccc2O)nc2ccccc12 [Compound no. 77, 2-hydroxybenzaldehyde-(4-methyl-2-quinolinyl)hydrazone] | better IC50 values than RMP | 6.59 | 77.17 | 57.42 | 29.14 | 22.41 | 34.09
